# Test results published in PubChem BioAssay AID1963439 (Molecular Pharmacology Branch, DTP, NCI, 2024).
# Values joined by “and” are separate entries in the source; they are usually repeats but may differ in a detail not shown here. Equal values may be shown once.
# System: NCI-H196 complex spheroids with HUVEC/MSC, growth % T/C
# Assay: Anticancer human tumor NCI-H196 cell line growth inhibition [Asc];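 note: spheroids exposed to compound for 7 days before measurement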;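 for viability, T/C: 100% = DMSO vehicle control wells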
# Settings: for viability, T/C: stronger effect = lower value
# Method: Multicellular complex tumor spheroid response to apoptosis pathway targeting inhibitors Alrizomadlin, Pelcitoclax, and Dasminapant in combination with a variety of drugs and investigational agents in selected tumor cell lines
# The MDM2 inhibitor alrizomadlin, the Bcl-2/Bcl-xL inhibitor pelcitoclax, and the IAPs inhibitor dasminapant were evaluated both individually and in combination with standard of care and investigational anticancer small molecules within a complex spheroid model of solid tumors. . Complex spheroids include a stromal component modeled by human endothelial cells (HUVEC) and fibroblasts modeled by human mesenchymal stem cells (MSCs). The concentration ranges selected for each drug and investigational agent were based upon clinically achievable concentrations if the clinical Cmax of the agent was known.
# Compounds. The drugs and investigational agents: alrizomadlin (APG-115; NSC831270), pelcitoclax (APG-1252; NSC835773), dasminapant (APG-1387;NSC834197), TAK-243 (NSC785004), copanlisib (NSC809693), olaparib (NSC753686), talazoparib (NSC767125), cobimetinib (NSC 768068), eltanexor (KPT-8602, NSC 794443), abemaciclib (NSC 768073), sotorasib (NSC818433), adagrasib (NSC 831453), MRTX-1133 (NSC 836407), Iadademestat (ORY1001, NSC 806812), and RMC-4630 (NSC839698), were obtained from the NCI Developmental Therapeutics Program Chemical Repository. The FDA-approved anticancer drug set is available from the Developmental Therapeutics Program at https://dtp.cancer.gov/organization/dscb/obtaining/available plates.htm. […] The stock solutions were prepared in dimethyl sulfoxide (DMSO, Sigma-Aldrich, St. Louis, MO, cat. D2650) at 800-fold the tested concentration and stored at -70 degrees C prior to their use. All drugs and investigational agents were tested over a range starting from a high concentration at or near the clinical Cmax and decreasing in half-log increments. If the clinical Cmax for an agent had not been determined, the highest concentration tested was 10 microM.
# The patient-derived cancer (PDC) cell lines include five colon adenocarcinomas: 186277-243-T-J2-PDC, 616215-338-R-J1-PDC, 439559-082-T-J2-PDC, 463943-066-T-J2-PDC, and 519858-162-T-J1-PDC; three pancreatic carcinomas: 323965-272-R-J2-PDC, 521955-158-R6-J3-PDC, and 521955-158-R2-J5-PDC; two uterine sarcomas: 327498-152-R-J2-PDC and 993429-296-R-J1-PDC; two rhabdomyosarcomas: 755483-174-R-J1-PDC and 772245-204-R-J1-PDC; two soft tissue sarcomas: 126254-015-R-J1-PDC and 494315-158-R-J1-PDC; two malignant fibrous histiocytomas: 317291-083-R-J1-PDC and 596521-263-R-J1-PDC; two breast carcinomas: 171881-019-R-J1-PDC and 885512-296-R-J2-PDC; and one ovarian carcinoma: 6556581-035-R-J-PDC were obtained from the NCI PDMR, (https://pdmr.cancer.gov). The established cell lines HSSY-2 synovial sarcoma (RRID:CVCL 8719), SYO-1 synovial sarcoma (RRID:CVCL_7146), MPNST malignant peripheral neural sheath tumor were obtained from the Sloan Kettering Institute. The following established cell lines were purchased from the American Type Culture Collection (ATCC, Manassas, VA), Sor the received from the NCI repository:, PANC-1 pancreatic carcinoma (CRL-1469, RRID:CVCL_0480), OVCAR-5 ovarian carcinoma (RRID:CVCL_1628), OVCAR-8 ovarian carcinoma (RRID:CVCL_1629), , MCF-7 breast carcinoma (CRL-12584, RRID:CVCL_0031), MDA-MB-231 breast carcinoma (CRL-12532, RRID:CVCL_0062), NCI-H1876 small cell lung carcinoma (CRL-5902, RRID:CVCL_1503), NCI-H510A small cell lung carcinoma (HTB-184, RRID:CVCL_1565), NCI-H1417 (CRL-5869, RRID:CVCL_1469), and NCI-H196 small cell lung carcinoma (CRL-5823, RRID:CVCL_1509). Dr. Peter Houghton (Greehey Children's Cancer Research Institute, University of Texas Health Science Center, San Antonio, TX) provided Rh-18 rhabdomyosarcoma (RRID:CVCL_1659). Pooled donor human umbilical vein endothelial cells (HUVEC, Lonza, cat. CC-2519) and human mesenchymal stem cells (hMSC, Lonza, cat. PT-2501) were purchased from Lonza (Walkersville, MD).
# Cell Culture. […]
smiles,measurement,setting,value
C=C(F)C(=O)N1CCN(c2nc(OCC3CCCN3C)nc3c2CCN(c2cccc4cccc(Cl)c24)C3)CC1CC#N (configuration not stated) + CCN1C(C(=O)NC23CCC(C(=O)O)(CC2)CC3)C(c2cccc(Cl)c2F)C2(C(=O)Nc3cc(Cl)ccc32)C12CCCCC2,IC50,"curve of first compound, second compound 0.03 µM",> 10 µM
same,IC50,"curve of first compound, second compound 0.0949 µM",> 10 µM
same,IC50,"curve of first compound, second compound 0.3 µM",> 10 µM
same,IC50,"curve of first compound, second compound 0.949 µM",> 10 µM
same,IC50,"curve of first compound, second compound 3 µM",> 10 µM
same,"viability, T/C","second compound 0.03 µM, first compound 0.0316 µM",124%
same,"viability, T/C","second compound 0.03 µM, first compound 0.1 µM",106%
same,"viability, T/C","second compound 0.03 µM, first compound 0.316 µM",108%
same,"viability, T/C","second compound 0.03 µM, first compound 1 µM",102%
same,"viability, T/C","second compound 0.03 µM, first compound 3.16 µM",108%
same,"viability, T/C","second compound 0.03 µM, first compound 10 µM",93.2%
same,"viability, T/C","second compound 0.0949 µM, first compound 0.0316 µM",112%
same,"viability, T/C","second compound 0.0949 µM, first compound 0.1 µM",107%
same,"viability, T/C","second compound 0.0949 µM, first compound 0.316 µM",113%
same,"viability, T/C","second compound 0.0949 µM, first compound 1 µM",101%
same,"viability, T/C","second compound 0.0949 µM, first compound 3.16 µM",109%
same,"viability, T/C","second compound 0.0949 µM, first compound 10 µM",96.2%
same,"viability, T/C","second compound 0.3 µM, first compound 0.0316 µM",108%
same,"viability, T/C","second compound 0.3 µM, first compound 0.1 µM",114%
same,"viability, T/C","second compound 0.3 µM, first compound 0.316 µM",103%
same,"viability, T/C","second compound 0.3 µM, first compound 1 µM",115%
same,"viability, T/C","second compound 0.3 µM, first compound 3.16 µM",110%
same,"viability, T/C","second compound 0.3 µM, first compound 10 µM",98.1%
same,"viability, T/C","second compound 0.949 µM, first compound 0.0316 µM",115%
same,"viability, T/C","second compound 0.949 µM, first compound 0.1 µM",119%
same,"viability, T/C","second compound 0.949 µM, first compound 0.316 µM",117%
same,"viability, T/C","second compound 0.949 µM, first compound 1 µM",106%
same,"viability, T/C","second compound 0.949 µM, first compound 3.16 µM",114%
same,"viability, T/C","second compound 0.949 µM, first compound 10 µM",105%
same,"viability, T/C","second compound 3 µM, first compound 0.0316 µM",135%
same,"viability, T/C","second compound 3 µM, first compound 0.1 µM",119%
same,"viability, T/C","second compound 3 µM, first compound 0.316 µM",117%
same,"viability, T/C","second compound 3 µM, first compound 1 µM",120%
same,"viability, T/C","second compound 3 µM, first compound 3.16 µM",112%
same,"viability, T/C","second compound 3 µM, first compound 10 µM",114%
C=CC(=O)N1CCN(c2nc(=O)n(-c3c(C)ccnc3C(C)C)c3nc(-c4c(O)cccc4F)c(F)cc23)C(C)C1 (configuration not stated),"viability, T/C",compound 0.0316 µM,92% and 102% and 106%
same,"viability, T/C",compound 0.1 µM,94.8% and 110% and 103%
same,"viability, T/C",compound 0.316 µM,103% and 93.4% and 109%
same,"viability, T/C",compound 1 µM,99.8% and 106% and 112%
same,"viability, T/C",compound 3.16 µM,97.6% and 103% (2×)
same,"viability, T/C",compound 10 µM,95.1% and 114% and 91.3%
same,IC50,curve of compound,> 10 µM
NC1CCC(NC2CC2c2ccccc2)CC1 (configuration not stated) + CNC(C)C(=O)NC1CN(S(=O)(=O)c2cccc(S(=O)(=O)N3CCC4CCC(C(=O)NC(c5ccccc5)c5ccccc5)N4C(=O)C(NC(=O)C(C)NC)C3)c2)CCC2CCC(C(=O)NC(c3ccccc3)c3ccccc3)N2C1=O,IC50,"curve of first compound, second compound 0.01 µM",< 0.000316 µM
same,IC50,"curve of first compound, second compound 0.0316 µM",< 0.000316 µM
same,IC50,"curve of first compound, second compound 0.1 µM",< 0.000316 µM
same,IC50,"curve of first compound, second compound 0.316 µM",< 0.000316 µM
same,IC50,"curve of first compound, second compound 1 µM",< 0.000316 µM
same,"viability, T/C","second compound 0.01 µM, first compound 0.000316 µM",4.85%
same,"viability, T/C","second compound 0.01 µM, first compound 0.001 µM",7.42%
same,"viability, T/C","second compound 0.01 µM, first compound 0.00316 µM",7.08%
same,"viability, T/C","second compound 0.01 µM, first compound 0.01 µM",4.94%
same,"viability, T/C","second compound 0.01 µM, first compound 0.0316 µM",4.47%
same,"viability, T/C","second compound 0.01 µM, first compound 0.1 µM",5.83%
same,"viability, T/C","second compound 0.0316 µM, first compound 0.000316 µM",3.28%
same,"viability, T/C","second compound 0.0316 µM, first compound 0.001 µM",3.9%
same,"viability, T/C","second compound 0.0316 µM, first compound 0.00316 µM",6.09%
same,"viability, T/C","second compound 0.0316 µM, first compound 0.01 µM",4.65%
same,"viability, T/C","second compound 0.0316 µM, first compound 0.0316 µM",4.22%
same,"viability, T/C","second compound 0.0316 µM, first compound 0.1 µM",4.12%
same,"viability, T/C","second compound 0.1 µM, first compound 0.000316 µM",3.22%
same,"viability, T/C","second compound 0.1 µM, first compound 0.001 µM",3.76%
same,"viability, T/C","second compound 0.1 µM, first compound 0.00316 µM",3.15%
same,"viability, T/C","second compound 0.1 µM, first compound 0.01 µM",3.8%
same,"viability, T/C","second compound 0.1 µM, first compound 0.0316 µM",2.91%
same,"viability, T/C","second compound 0.1 µM, first compound 0.1 µM",5.63%
same,"viability, T/C","second compound 0.316 µM, first compound 0.000316 µM",3.14%
same,"viability, T/C","second compound 0.316 µM, first compound 0.001 µM",3.25%
same,"viability, T/C","second compound 0.316 µM, first compound 0.00316 µM",3.34%
same,"viability, T/C","second compound 0.316 µM, first compound 0.01 µM",2.68%
same,"viability, T/C","second compound 0.316 µM, first compound 0.0316 µM",2.82%
same,"viability, T/C","second compound 0.316 µM, first compound 0.1 µM",2.95%
same,"viability, T/C","second compound 1 µM, first compound 0.000316 µM",3.04%
same,"viability, T/C","second compound 1 µM, first compound 0.001 µM",4.43%
same,"viability, T/C","second compound 1 µM, first compound 0.00316 µM",3.1%
same,"viability, T/C","second compound 1 µM, first compound 0.01 µM",3.47%
same,"viability, T/C","second compound 1 µM, first compound 0.0316 µM",3.24%
same,"viability, T/C","second compound 1 µM, first compound 0.1 µM",2.28%
